The results in this text go back to US10052306B2 (LUC THERAPEUTICS, INC., priority 2013, dated 2018).

The experiment has as its target NR1/NR2B (Homo sapiens (Human), UniProt Q05586+Q13224). Briefly: Cell assay: FDSS Ca2+ influx inhibition in HEK293 cells expressing NR1/NR2B.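 Also: Fluo-8 Ca2+ signal read on Hamamatsu FDSS 6000 after glutamate, glycine and Ca2+ challenge following 10 min compound preincubation, end/baseline fluorescence ratio compared with MK801 control.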 The following applies: Ca2+ influx.
[1] abbreviates: NR2B NAM IC50, HEK293 cells expressing NR1/NR2B.
Where [2] appears, read: Binned Activity, HEK293 cells expressing NR1/NR2B, binned NR2B NAM IC50.

Structures are written as SMILES.

NR1/NR2B, sequence (Q13224 27-1484, other chains not shown): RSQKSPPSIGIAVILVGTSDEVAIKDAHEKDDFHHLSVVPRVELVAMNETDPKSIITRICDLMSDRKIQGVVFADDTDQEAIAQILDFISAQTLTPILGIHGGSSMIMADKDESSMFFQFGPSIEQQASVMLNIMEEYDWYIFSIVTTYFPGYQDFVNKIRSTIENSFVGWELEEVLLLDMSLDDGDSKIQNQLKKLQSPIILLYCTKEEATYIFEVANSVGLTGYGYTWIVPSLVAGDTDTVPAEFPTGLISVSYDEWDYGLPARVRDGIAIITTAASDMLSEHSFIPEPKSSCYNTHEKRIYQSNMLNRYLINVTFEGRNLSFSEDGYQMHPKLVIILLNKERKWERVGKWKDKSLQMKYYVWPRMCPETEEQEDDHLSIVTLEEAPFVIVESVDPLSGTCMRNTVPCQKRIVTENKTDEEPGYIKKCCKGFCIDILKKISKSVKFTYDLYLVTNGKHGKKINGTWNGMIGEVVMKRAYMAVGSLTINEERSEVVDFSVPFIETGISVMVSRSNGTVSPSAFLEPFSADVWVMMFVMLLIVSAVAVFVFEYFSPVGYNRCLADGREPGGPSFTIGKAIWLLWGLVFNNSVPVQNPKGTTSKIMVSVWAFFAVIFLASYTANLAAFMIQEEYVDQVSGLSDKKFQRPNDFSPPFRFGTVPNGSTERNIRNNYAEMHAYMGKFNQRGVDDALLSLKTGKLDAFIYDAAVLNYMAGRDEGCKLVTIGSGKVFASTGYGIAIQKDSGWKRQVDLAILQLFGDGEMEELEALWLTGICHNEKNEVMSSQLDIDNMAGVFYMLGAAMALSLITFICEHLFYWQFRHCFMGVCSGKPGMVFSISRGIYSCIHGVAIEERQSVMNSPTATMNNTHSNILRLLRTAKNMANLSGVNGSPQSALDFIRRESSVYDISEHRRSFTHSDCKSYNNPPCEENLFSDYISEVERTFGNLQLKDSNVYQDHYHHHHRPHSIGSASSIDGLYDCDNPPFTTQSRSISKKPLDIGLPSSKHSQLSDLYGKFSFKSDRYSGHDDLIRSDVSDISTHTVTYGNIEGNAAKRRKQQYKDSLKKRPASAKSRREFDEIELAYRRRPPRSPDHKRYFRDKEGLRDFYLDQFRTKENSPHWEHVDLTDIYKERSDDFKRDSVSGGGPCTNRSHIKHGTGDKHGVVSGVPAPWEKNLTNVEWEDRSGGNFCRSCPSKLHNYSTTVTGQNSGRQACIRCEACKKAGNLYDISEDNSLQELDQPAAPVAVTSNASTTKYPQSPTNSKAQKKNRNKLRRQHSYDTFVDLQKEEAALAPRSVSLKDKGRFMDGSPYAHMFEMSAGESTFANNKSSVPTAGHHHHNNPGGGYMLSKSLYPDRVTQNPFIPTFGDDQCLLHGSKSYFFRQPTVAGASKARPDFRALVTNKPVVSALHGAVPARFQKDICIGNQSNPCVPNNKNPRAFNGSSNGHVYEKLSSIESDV
Experimental: Cell Culture and plating: HEK293 cells expressing NR1/NR2B (Chantest, Cleveland, Ohio) were grown to 70-80% confluency as an adherent monolayer in standard tissue culture flasks at 37° C., 5% CO2 per supplier's instructions. NR2B expression was induced by incubation with 0.3-0.4 μg/ml tetracycline in the presence of 4 mM ARL-15896 for 18-24 hours under the same growth conditions, then transferred to 30° C. for another 3-5 hours.
After induction, cell culture medium was removed and cells were rinsed once with Ca^2+ and Mg^2+-free Dulbecco's phosphate buffered saline. Cells were then removed from the flask using TrypLE™ Express (Life Technologies) according to the manufacturer's instructions and collected to 50 ml centrifuge tubes. Following two washes in Ca^2+/Mg^2+-free HBSS with 20 mM HEPES (HHnoCa), cells were counted and viability assessed using trypan blue. To load cells with Ca^2+-sensitive dye, they were resuspended in fluo-8 plus Component B (AAT Bioquest Products) diluted in HHnoCa and incubated 15 minutes at 37° C., followed by 30 minutes at room temp (in dark). Cells were then washed and resuspended in HHnoCa to remove extracellular dye and plated in 384-well plates (Falcon, uncoated) at 20,000-30,000 cells/well in a final volume of 25 μl/well.
FDSS Assay: To each well of the plate, 10 μL test compound, control (MK801) or HHnoCa buffer was added to a final concentration of 10 μM with a final concentration of DMSO of 0.1%. Following 10 minutes pre-incubation in the dark, plates are loaded onto the Hamamatsu FDSS 6000. After collecting baseline fluorescence images, 3 μM glutamate, 3 glycine, and 1 mM Ca^2+ in HHnoCa buffer is added to each well, and Ca^2+ is recorded for 3 minutes. Data were processed by computing ratio of fluorescence at the end of data collection to baseline fluorescence to assess degree of Ca′ influx inhibition relative to that observed in MK801.

Compound `CC(C(O)c1ccc(O)cc1)N1C[C@@H]2C[C@@](O)(CCc3ccccc3)C[C@@H]2C1` (mixture of isomers) [Example 320, rac-2-(1-hydroxy-1-(4-hydroxyphenyl)propan-2-yl)-5-phenethyl-octahydrocyclo-panta[c]pyrrol-5-ol] returned an IC50 under setting [1] of 2050 nM.

In the case of `COc1cccc([C@]2(O)C[C@H]3CN(C(=O)Nc4ccc(Cl)c(C(F)(F)F)c4)C[C@H]3C2)c1` [Example 34, N-[4-chloro-3-(trifluoromethyl)phenyl]-5-hydroxy-5-(3-methoxyphenyl)-octahydrocyclopenta[c] pyrrole-2-carboxamide], the IC50 under setting [2] is greater than 10000 nM.

Regarding `COc1cccc([C@]2(O)C[C@H]3CN(CC(O)c4cccc(C(F)(F)F)c4)C[C@H]3C2)c1` (mixture of isomers) [Example 73, rac-2-{2-hydroxy-2-[3-(trifluoromethyl)phenyl]ethyl}-5-(3-methoxyphenyl)-octahydrocyclopenta[c] pyrrol-5-ol], the IC50 by setting is: under setting [2], greater than 10000 nM; under setting [1], no less than 10000 nM.

Turning to `[2H]C(O)(CN1C[C@@H]2C[C@@](O)(Cc3ccccc3)C[C@@H]2C1)c1ccc(O)cc1` (mixture of isomers) [Example 281, deuterated rac-(3aR,6aS)-5-benzyl-2-((S)-2-hydroxy-2-(4-hydroxyphenyl)ethyl) octahydrocyclopenta [c]pyrrol-5-ol], the IC50 under setting [2] was less than 100 nM and the IC50 under setting [1] was determined as 17.4 nM.

Regarding `Oc1ccc(C(O)CN2C[C@@H]3C[C@@](O)(Cc4ccc(F)cc4F)C[C@@H]3C2)nc1` (mixture of isomers) [Example 233, rac-(3aR,5r,6aS)-5-(2,4-difluorobenzyl)-2-(2-hydroxy-2-(5-hydroxypyridin-2-yl)ethyl)octahydrocyclo-penta[c]pyrrol-5-ol], the IC50 is less than 100 nM under setting [2] and 29.9 nM under setting [1].

Turning to `COc1cccc([C@]2(O)C[C@H]3CN(CC(O)c4cccc(F)c4)C[C@H]3C2)c1` (mixture of isomers) [Example 63, rac-2-[2-(3-fluorophenyl)-2-hydroxyethyl]-5-(3-methoxyphenyl)-octahydrocyclopenta[c] pyrrol-5-ol], the IC50 is, setting by setting: under setting [2], greater than 10000 nM; under setting [1], no less than 10000 nM.

For the compound `Oc1ccc(C(O)CN2C[C@@H]3C[C@](F)(Cc4ccccc4)C[C@@H]3C2)cc1F` (mixture of isomers) [Example 316, rac-4-(2-((3aR,5s,6aS)-5-benzyl-5-fluoro-hexahydrocyclopen-ta[c]pyrrol-2(1H)-yl)-1-hydroxyethyl)-2-fluorophenol], the IC50 reads like this: under setting [2], less than 100 nM; under setting [1], 36.4 nM.

Under setting [1], `Oc1ccc(C(O)CN2C[C@H]3C[C@@H](Cc4ccccc4)C[C@H]3C2)cc1F` (mixture of isomers) [Example 301, rac-4-{2-[(3aR,5S,6aS)-5-benzyl-octahydrocyclopenta[c]pyrrol-2-yl]-1-hydroxyethyl}-2-fluorophenol] registered an IC50 of 12.2 nM.

`Oc1ccc(C(O)CN2C[C@@H]3C[C@@](O)(Cc4ccccc4)C[C@@H]3C2)cc1` (mixture of isomers) [Example 131, rac-(3aR,5r,6aS)-5-benzyl-2-(2-hydroxy-2-(4-hydroxyphenyl)ethyl)octa-hydrocyclopenta[c]pyrrol-5-ol] registered an IC50 under setting [2] of less than 100 nM and an IC50 under setting [1] of 25.5 nM.

Turning to `Cc1ccc(NC(=O)N2C[C@@H]3C[C@@](O)(c4ccccc4)C[C@@H]3C2)c(C)c1` [Example 47], the IC50 by setting is: under setting [2], greater than 10000 nM; under setting [1], no less than 10000 nM.

As to `CO[C@@]1(Cc2ccccc2)C[C@H]2CN(CC(O)c3ccc(O)cn3)C[C@H]2C1` (mixture of isomers) [Example 177, rac-6-(2-((3aR,5r,6aS)-5-benzyl-5-methoxyhexahydrocyclo-penta[c]pyrrol-2(1H)-yl)-1-hydroxyethyl)pyridin-3-ol], the IC50 under setting [1] was 31.6 nM.

The compound `OC(CN1C[C@@H]2C[C@@](O)(c3ccc(F)cc3)C[C@@H]2C1)c1ccc(Cl)cc1Cl` (mixture of isomers) [Example 76, rac-2-[2-(2,4-dichlorophenyl)-2-hydroxyethyl]-5-(4-fluorophenyl)-octahydrocyclopenta[c] pyrrol-5-ol] registered an IC50 under setting [2] greater than 10000 nM and a half-maximal inhibitory concentration (IC50) under setting [1] of no less than 10000 nM.

Compound `Oc1ccc(C(O)CN2C[C@@H]3C[C@@](O)(Cc4cccs4)C[C@@H]3C2)nc1` (mixture of isomers) [Example 215, rac-2-(2-hydroxy-2-(5-hydroxypyridin-2-yl)ethyl)-5-(thiophen-2-ylmethyl)octahydrocyclo-penta[c]pyrrol-5-ol] came in with an IC50 under setting [1] of 25.7 nM.

Regarding `COc1cccc(NC(=O)N2C[C@@H]3C[C@@](O)(c4ccccc4C)C[C@@H]3C2)c1`, the IC50 reads like this: under setting [2], greater than 10000 nM; under setting [1], no less than 10000 nM.

Take `Oc1c(F)cc(C(O)CN2C[C@@H]3C[C@@](O)(Cc4ccccc4)C[C@@H]3C2)cc1F` (mixture of isomers) [Example 160, rac-(3aR,5r,6aS)-5-benzyl-2-(2-(3,5-difluoro-4-hydroxyphenyl)-2-hydroxyethyl)octahydro-cyclopenta[c]pyrrol-5-ol]: under setting [1], half-maximal inhibition (IC50) was put at 98.1 nM.

On to `O=C(Nc1ccc(Cl)c(C(F)(F)F)c1)N1C[C@@H]2C[C@@](O)(c3ccc(F)cc3)C[C@@H]2C1` [Example 43], for which the IC50 is greater than 10000 nM under setting [2] and no less than 10000 nM under setting [1].

As to `Oc1ccc(C(O)CN2CC3(C2)CC(O)(Cc2ccccc2)C3)cc1` (racemic) [Example 343, rac-6-benzyl-2-(2-hydroxy-2-(4-hydroxyphenyl)ethyl)-2-azaspiro[3.3]heptan-6-ol], inhibition under setting [1] was half-maximal at 506 nM (IC50).

Consider `COc1cccc(C(O)CN2C[C@@H]3C[C@@](O)(c4cccc(OC)c4)C[C@@H]3C2)c1` (mixture of isomers) [Example 77, rac-2-[2-hydroxy-2-(3-methoxyphenyl)ethyl]-5-(3-methoxyphenyl)-octahydrocyclopenta[c] pyrrol-5-ol], for which the IC50 runs as follows: under setting [2], greater than 10000 nM; under setting [1], no less than 10000 nM.

For `Cc1cc(C)cc(C[C@]2(O)C[C@H]3CN(CC(O)c4ccc(O)cn4)C[C@H]3C2)c1` (mixture of isomers) [Example 208, rac-6-{2-[(3aR,5R,6aS)-5-[(3,5-dimethylphenyl)methyl]-5-hydroxy-octahydrocyclopenta[c]pyrrol-2-yl]-1-hydroxyethyl}pyridin-3-ol-3-ol], under setting [1], inhibition was half-maximal at 666 nM (IC50).

`Oc1ccc(C(O)CN2C[C@@H]3C[C@@](F)(Cc4ccccc4)C[C@@H]3C2)cc1` (mixture of isomers) [Example 313, rac-4-(2-((3aR,5r,6aS)-5-benzyl-5-fluoro-hexahydrocyclopen-ta[c]pyrrol-2(1H)-yl)-1-hydroxyethyl)phenol]: the IC50 is less than 100 nM under setting [2] and 26.9 nM under setting [1].

Turning to `CC(=O)Nc1ccc(C(O)CN2C[C@@H]3C[C@@](O)(Cc4ccccc4)C[C@@H]3C2)cn1` (mixture of isomers) [Example 283, rac-N-(5-(2-((3aR,5r,6aS)-5-benzyl-5-hydroxyhexahydrocyclo-penta[c]pyrrol-2(1H)-yl)-1-hydroxyethyl)pyridin-2-yl)acetamide], the IC50 runs as follows: under setting [2], greater than 10000 nM; under setting [1], no less than 10000 nM.

For `Oc1ccc(C(O)CN2C[C@@H]3C[C@@](O)(Cc4ccccc4Cl)C[C@@H]3C2)nc1` (mixture of isomers) [Example 246, rac-(3aR,5r,6aS)-5-(2-chlorobenzyl)-2-(2-hydroxy-2-(5-hydroxypyridin-2-yl)ethyl)octahydrocyclo-penta[c]pyrrol-5-ol], under setting [1], the IC50 was 50.3 nM.

Consider `CC(C)(C)C(=O)Nc1ccc(C(O)CN2C[C@@H]3C[C@@](O)(Cc4ccccc4)C[C@@H]3C2)cn1` (mixture of isomers) [Example 286, rac-N-(5-(2-(5-benzyl-5-hydroxyhexahydrocyclo-penta[c]pyrrol-2(1H)-yl)-1-hydroxyethyl)pyridin-2-yl)pivalamide], for which the IC50 was greater than 10000 nM under setting [2] and no less than 10000 nM under setting [1].

Turning to `Cc1cc(F)ccc1C[C@]1(O)C[C@H]2CN(CC(O)c3ccc(O)cn3)C[C@H]2C1` (mixture of isomers) [Example 243, rac-(3aR,5r,6aS)-5-(4-fluoro-2-methylbenzyl)-2-(2-hydroxy-2-(5-hydroxypyridin-2-yl)ethyl)octahydrocyclo-penta[c]pyrrol-5-ol], the IC50 under setting [1] is 75.7 nM.

Regarding `CC(C(=O)c1ccc(O)cc1)N1C[C@@H]2C[C@@](O)(c3ccccc3)C[C@@H]2C1` (mixture of isomers) [Example 90, rac-2-(5-hydroxy-5-phenylhexahydrocyclo-penta[c]pyrrol-2(1H)-yl)-1-(4-hydroxyphenyl)propan-1-one], the IC50 runs as follows: under setting [2], greater than 10000 nM; under setting [1], no less than 10000 nM.

`O=c1ccc(C(O)CN2C[C@@H]3C[C@@](O)(Cc4ccccc4)C[C@@H]3C2)n[nH]1` (mixture of isomers) [Example 158, rac-6-(2-((3aR,5r,6aS)-5-benzyl-5-hydroxyhexahydrocyclo-penta[c]pyrrol-2(1H)-yl)-1-hydroxyethyl)pyridazin-3(2H)-one]: the IC50 reads like this: under setting [2], greater than 10000 nM; under setting [1], no less than 10000 nM.

The compound `Cc1ccc(C[C@]2(O)C[C@H]3CN(CC(=O)c4ccc(O)cc4)C[C@H]3C2)cc1` [Example 179] had an IC50 under setting [2] of less than 100 nM.

`Oc1ccc(C(O)CN2C[C@H]3C[C@H](Cc4ccccc4)C[C@H]3C2)cc1F` (mixture of isomers) [Example 302, rac-4-{2-[(3aR,5R,6aS)-5-benzyl-octahydrocyclopenta[c]pyrrol-2-yl]-1-hydroxyethyl}-2-fluorophenol] showed an IC50 under setting [1] of 20.1 nM.

For the compound `CC(C)(O)c1ccc(C(O)CN2C[C@@H]3C[C@@](O)(Cc4ccccc4)C[C@@H]3C2)cc1` (mixture of isomers) [Example 139, rac-(3aR,5r,6aS)-5-benzyl-2-(2-hydroxy-2-(4-(2-hydroxypropan-2-yl)phenyl)ethyl)octahydro-cyclopenta[c]pyrrol-5-ol], the 50% inhibitory concentration (IC50) was greater than 10000 nM under setting [2] and no less than 10000 nM under setting [1].

On to `COc1cccc(NC(=O)N2C[C@@H]3C[C@@](O)(c4ccc(F)cc4)C[C@@H]3C2)c1` [Example 37], for which the IC50 under setting [2] was greater than 10000 nM.

With `Cc1ccccc1[C@]1(O)C[C@H]2CN(C(=O)Nc3ccc(F)cc3)C[C@H]2C1` [Example 13], the IC50 is greater than 10000 nM under setting [2] and no less than 10000 nM under setting [1].

Compound `Oc1ccc(C(O)CN2C[C@@H]3C[C@@](O)(Cc4ccncc4)C[C@@H]3C2)cc1` (mixture of isomers) [Example 227, rac-(3aR,5r,6aS)-2-(2-hydroxy-2-(4-hydroxyphenyl)ethyl)-5-(pyridin-4-ylmethyl)octahydrocyclo-penta[c]pyrrol-5-ol] had an IC50 under setting [1] of 3150 nM.
